Here are results for nine compounds from patent US20070128139A1, “Hair treatment compositions comprising hydroxy comopounds” (priority 2002, published 2007).

A short description of this assay: cuticle abrasion test (hair washed with shampoo test composition, blended, cuticle recovered and weighed). Conditions: freeze-dried cuticle weighed back after abrasion; 0.03M compound in base shampoo; 4 g hair washed twice in 0.4 g test composition; lower = less cuticle loss. As to the method: A base shampoo composition was prepared, comprising 12 wt % sodium lauryl ether sulphate (2EO), […] cocoamidopropyl betaine and 86 wt. % water.
To this base solution 0.03M of the following compounds was added:
The compositions were tested in a cuticle abrasion test. Root end hair (as received form the supplier) was pre-cleaned by washing for 1 minute in Composition I followed by copious rinsing in double deionised water. The hair was left to dry naturally over 24 hrs.
For each test, 4 g of hair was washed in 0.4 g of the test composition for 30 seconds, rinsed for 30 seconds, and the washing/rinsing cycle repeated. The hair was left to dry naturally overnight.
The hair was cut into 1 cm lengths, placed in a blender bucket and 200 ml of double de-ionized water was added. The blender was placed on full power for 1 minute. The liquor was decanted off and transferred to a 50 ml centrifuge tube and centrifuged for 10 minutes at 4,300 RPM. The resulting clear liquor was decanted off leaving the cuticle sediment at the bottom of the tube.
The cuticle was transferred from the tube into a beaker with 3×5 ml washes and passed through a series of sieves (425 and 53 microns). The sieves were washed with a further 2×10 ml of water to ensure complete recovery of the cuticle. The sample was made up to 50 ml in a centrifuge tube, centrifuged for 15 minutes and the liquor decanted off. The cuticle was transferred with double deionised water (2×10 ml washes) to a beaker and freeze-dried.
The freeze-dried cuticle was weighed back to determine percentage recovery.

As for `CCCC(C)(O)CC(C)C` (stereo not drawn) [Example A, 2,4-dimethyl-4-heptanol, reference compound], the “% recovery” value worked out at 0.84%.

Consider `CCCCCC(C)(C)O` [Example 2, 2-methyl-2-heptanol], for which the “% recovery” value is on record as 0.54%.

For `CCCCC(C)(C)O` [Example 1, 2-methyl-2-hexanol], the “% recovery” value is 0.53%.

`CCCC(C)(C)O` [Example 4, 2-methyl-2-pentanol]: the “% recovery” value is on record as 0.58%.

In the case of `CCCC(C)CO` (stereo not drawn) [Example 7, 2-methyl-1-pentanol], the “% recovery” value is on record as 0.64%.

As to `CCC(C)C(C)O` (stereo not drawn) [Example 6, 3-methyl-2-pentanol], the “% recovery” value amounted to 0.62%.

`CC(C)CC(C)O` (stereo not drawn) [C, 4-methyl-2-pentanol, reference compound]: the “% recovery” value worked out at 0.79%.

In the case of `CCCCC(O)C(C)C` (stereo not drawn) [Example 3, 2-methyl-3-heptanol], the “% recovery” value is reported as 0.55%.

Consider `CCC(C)(O)CCCC(C)C` (stereo not drawn) [B, 3,7-dimethyl-3-octanol, reference compound], for which the “% recovery” value was 0.84%.
